Test results: BindingDB's records for doi:10.1016/j.bioorg.2015.09.004 (Universiti Teknologi Mara, 2015)

Target: Alpha-glucosidase MAL12 (Saccharomyces cerevisiae (strain ATCC 204508 / S288c), UniProt P53341)
Test: Baker's Yeast alpha-Glucosidase Inhibition Assay
Conditions: pH 6.8; 37 °C
Procedure: The enzyme inhibition was evaluated according to the method previously reported by Taha et al. with slight modification. Various concentration of test compounds (10 uL) were dissolved in DMSO (ranging from 200 to 6.25 ug/mL) and premixed with 95 uL of 50 mM phosphate buffer (pH 6.8). Then, 25 uL of enzyme (0.0625 U/mL) in phosphate buffer saline was added into each well and the plate was incubated at 37 °C for 10 min. Afterward, 25 uL of PNPG in phosphate buffer saline (5 mM) were added and pre-read of the plate was taken by using a microplate reader (Spectrostar Nano BMG Labtech, Germany). The reaction mixture was then incubated at 37 °C for 30 min and change in absorbance at 405 nm was monitored up to 30 min. For negative control, the test samples were replaced with 10 uL of DMSO and acarbose was used as positive control. All experiments were triplicated and the results were expressed as the mean +/- S.E.M of three determinations.

Chain of Alpha-glucosidase MAL12 (P53341 whole entry): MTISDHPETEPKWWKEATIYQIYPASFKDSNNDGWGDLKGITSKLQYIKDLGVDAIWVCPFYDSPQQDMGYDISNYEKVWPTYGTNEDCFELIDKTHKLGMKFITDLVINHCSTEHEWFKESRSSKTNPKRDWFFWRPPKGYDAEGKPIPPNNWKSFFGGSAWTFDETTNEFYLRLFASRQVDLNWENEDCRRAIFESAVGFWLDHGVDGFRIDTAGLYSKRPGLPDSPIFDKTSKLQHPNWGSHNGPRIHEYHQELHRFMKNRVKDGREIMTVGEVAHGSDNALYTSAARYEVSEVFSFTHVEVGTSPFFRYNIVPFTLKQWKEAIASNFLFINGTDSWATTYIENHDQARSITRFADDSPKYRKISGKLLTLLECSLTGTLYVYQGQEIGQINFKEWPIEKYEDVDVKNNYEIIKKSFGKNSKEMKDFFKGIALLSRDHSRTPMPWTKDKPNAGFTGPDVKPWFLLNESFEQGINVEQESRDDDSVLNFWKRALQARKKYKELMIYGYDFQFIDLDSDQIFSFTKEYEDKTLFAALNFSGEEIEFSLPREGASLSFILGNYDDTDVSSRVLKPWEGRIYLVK

O=c1oc2ccccc2c(O)c1C(c1ccc(NC(=S)Nc2ccccc2Br)cc1)c1c(O)c2ccccc2oc1=O [1-(4-(bis(4-Hydroxy-2-oxo-2H-chromen-3-yl)methyl)phenyl)-3-(2-bromophenyl)-thiourea (1)]
IC50: 37.4 µM

O=c1oc2ccccc2c(O)c1C(c1ccc(NC(=S)Nc2ccccc2F)cc1)c1c(O)c2ccccc2oc1=O [1-(4-(bis(4-Hydroxy-2-oxo-2H-chromen-3-yl)methyl)phenyl)-3-(2-fluorophenyl)-thiourea (7)]
IC50: 91.3 µM

O=c1oc2ccccc2c(O)c1C(c1ccc(NC(=S)Nc2cccc(Br)c2)cc1)c1c(O)c2ccccc2oc1=O [1-(4-(bis(4-Hydroxy-2-oxo-2H-chromen-3-yl)methyl)phenyl)-3-(3-bromophenyl)-thiourea (2)]
IC50: 35.9 µM

O=c1oc2ccccc2c(O)c1C(c1ccc(NC(=S)Nc2cccc(F)c2)cc1)c1c(O)c2ccccc2oc1=O [1-(4-(bis(4-Hydroxy-2-oxo-2H-chromen-3-yl)methyl)phenyl)-3-(3-fluorophenyl)-thiourea (8)]
IC50: 55.1 µM

O=c1oc2ccccc2c(O)c1C(c1ccc(NC(=S)Nc2cccc([N+](=O)[O-])c2)cc1)c1c(O)c2ccccc2oc1=O [1-(4-(bis(4-Hydroxy-2-oxo-2H-chromen-3-yl)methyl)phenyl)-3-(3-nitrophenyl)-thiourea (17)]
IC50: 51 µM

O=c1oc2ccccc2c(O)c1C(c1ccc(NC(=S)Nc2ccc(Br)cc2)cc1)c1c(O)c2ccccc2oc1=O [1-(4-(bis(4-Hydroxy-2-oxo-2H-chromen-3-yl)methyl)phenyl)-3-(4-bromophenyl)-thiourea (3)]
IC50: 39 µM

O=c1oc2ccccc2c(O)c1C(c1ccc(NC(=S)Nc2ccc(F)cc2)cc1)c1c(O)c2ccccc2oc1=O [1-(4-(bis(4-Hydroxy-2-oxo-2H-chromen-3-yl)methyl)phenyl)-3-(4-fluorophenyl)-thiourea (9)]
IC50: 53.4 µM

O=c1oc2ccccc2c(O)c1C(c1ccc(NC(=S)Nc2ccc([N+](=O)[O-])cc2)cc1)c1c(O)c2ccccc2oc1=O [1-(4-(bis(4-Hydroxy-2-oxo-2H-chromen-3-yl)methyl)phenyl)-3-(4-nitrophenyl) thiourea (18)]
IC50: 24.7 µM
